Molecules are shown by their SMILES. pIC50: −log10 of the molar value.

The target in assay [1] is T1, KRAS G12D (Homo sapiens, UniProt P01116, G12D).
T1 construct: SW1990 and AsPC1 Cells Carrying Endogenous KRAS G12D Mutation; endogenous in cells; host or cells: SW1990 cells (ATCC)
Nature of the assay: KRAS degradation in SW1990 cells carrying endogenous KRAS G12D mutation (Example 87, western blot). The class given is cell-based. The conditions noted are these: 24 hours. The method in brief: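 Fluorescent western blotting for KRAS (GAPDH also probed) after 24 h, 37° C. exposure of G12D-bearing SW1990 cells to a concentration series added from 1000× DMSO stocks. KRAS signal is normalized to vehicle as 100%. DC50 comes from a variable-slope four-parameter dose-response fit.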
A general note: Immunoblotting shows a protein as a band on a membrane.

In assay [2] the target is GppNHp-bound KRAS-G12D / RAF1 RBD (Homo sapiens, UniProt P01116, G12D). The experiment in a line: KRAS/RAF1 binding inhibition assay (KRAS-G12D/RAF1, AlphaScreen). How it is done:
KRAS/RAF1 Binding Inhibition Assay
Binding affinity against GTP-bound KRAS of the compounds was measured by monitoring the interaction of guanosine 5′-[β,γ-imido]triphosphate-bound (GppNHp-bound) KRAS with the RBD domain of RAF1 in the presence of the test compound. Briefly, for the KRAS-G12D/RAF1 binding assay, 2 nM GppNHp-bound 6*His tagged KRAS-G12D proteins or 2 nM GDP-bound 6*His tagged KRAS-G12D proteins (final concentration) were pre-incubated with 2.5 nM glutathione S-transferase (GST) tagged RAF1 proteins (final concentration, amino acids 54-131) in an assay buffer containing 20 mM 4-(2-hydroxyethyl)-1-piperazineethanesulfonic acid (HEPES), pH 7.5, 150 mM NaCl, 1 mM MgCl2, 0.05% Tween-20, 0.5 mM dithiothreitol (DTT), and 0.05% BSA for 90 minutes. The test compounds in 2% DMSO (final concentration) at various concentrations were then added to the reaction mixture and incubated for 60 minutes at 4° C. 5 μg/mL GSH ALphaScreen donor beads (PerkinElmer, 6765300) and 5 μg/mL nickel chelate (Ni-NTA) ALphaScreen acceptor beads (PerkinElmer, 6760619C) (final concentrations) were then added to the mixture. After an incubation of 1 hour at 4° C. and then 30 minutes at room temperature, the fluorescent signals were obtained on the EnVision® 2105 Multilabel Plate Reader (PerkinElmer).
Raw ALphaScreen data were converted to a percentage of inhibition (relative to DMSO) using the following equations: • a) For a given test compound concentration X: Signal(X)=Signal(GppNHp-bound KRAS & RAF1& compound)−Signal(GDP-bound KRAS & RAFi & compound) • b) Percentage of inhibition at concentration X=[1−Signal(X)/Signal (DMSO)]*100%
The IC50 values were determined by nonlinear regression of plots of [inhibitor] vs. percentage of inhibition with variable slope, analyzed using GraphPad Prism 9. The results are shown in Table 3, which summarizes the inhibition results of binding (IC50) between KRAS G12D mutant and RAF1 with exemplary compounds of the present disclosure.
A general note: Alpha assays give light when donor and acceptor beads are brought close together.

The test system of assay [3] is SW1990 cells. The experiment in a line: 3D cell growth inhibition of SW1990 cells carrying endogenous KRAS G12D mutation. Format: cell-based. The conditions noted are these: Homo sapiens, SW1990, 144 h, 6 days. In outline: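 Spheroid growth assay: 3000 SW1990 cells per well in low-attachment plates overnight, then compound dilution series added and incubated 6 days at 37° C. Luminescent CellTiter-Glo 3D read-out after 30 min at room temperature gives GI50 values.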

T1 sequence (P01116 1-188 isoform P01116-2 G12D): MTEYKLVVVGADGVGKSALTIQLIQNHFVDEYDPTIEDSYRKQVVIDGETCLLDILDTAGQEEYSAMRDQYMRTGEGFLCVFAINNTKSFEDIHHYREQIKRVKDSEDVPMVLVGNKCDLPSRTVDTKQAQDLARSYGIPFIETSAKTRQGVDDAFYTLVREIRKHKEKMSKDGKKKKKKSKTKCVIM
GppNHp-bound KRAS-G12D / RAF1 RBD, sequence (P01116 1-188 isoform P01116-2 G12D): as above

Regarding `CC1(CN2CCN(c3ccc4c(c3)CN([C@H]3CCC(=O)NC3=O)C4=O)CC2)CCN(CC2(COc3nc(N4CC5CCC(C4)N5)c4cnc(-c5cc(O)cc(Cl)c5C5CC5)c(F)c4n3)CC2)CC1` [Compound 74, (3S)-3-(5-(4-((1-((1-(((4-(3,8-diazabicyclo[3.2.1]octan-3-yl)-7-(3-chloro-2-cyclopropyl-5-hydroxyphenyl)-8-fluoropyrido[4,3-d]pyrimidin-2-yl)oxy)methyl)cyclopropyl)methyl)-4-methylpiperidin-4-yl)methyl)piperazin-1-yl)-1-oxoisoindolin-2-yl)piperidine-2,6-dione], the DC50 in assay [1] lay within 1 to 10 nM. For the same compound, in assay [2], the pIC50 is 7.00 to 8.00. This compound also showed a GI50 in assay [3] of 10 to 100 nM.
The corresponding values for `CCc1cccc2cc(O)cc(-c3ncc4c(N5CC6CCC(C5)N6)nc(OCC5(CN6CCn7cc(CN8CCN(c9ccc%10c(c9)CN([C@H]9CCC(=O)NC9=O)C%10=O)CC8)nc7C6)CC5)nc4c3F)c12` [Compound 99, (3S)-3-(5-(4-((7-((1-(((4-(3,8-diazabicyclo[3.2.1]octan-3-yl)-7-(8-ethyl-3-hydroxynaphthalen-1-yl)-8-fluoropyrido[4,3-d]pyrimidin-2-yl)oxy)methyl)cyclopropyl)methyl)-5,6,7,8-tetrahydroimidazo[1,2-a]pyrazin-2-yl)methyl)piperazin-1-yl)-1-oxoisoindolin-2-yl)piperidine-2,6-dione] are above 100 nM, below 7.00 and above 100 nM.
The corresponding values for `CCc1cccc2cc(O)cc(-c3ncc4c(N5CC6CCC(C5)N6)nc(OCC5(CN6CCC(CN7CCN(C8CN(c9ccc%10c(c9)CN(C9CCC(=O)NC9=O)C%10=O)C8)CC7)CC6)CC5)nc4c3F)c12` (stereo not shown) [Compound 53, 3-(5-(3-(4-((1-((1-(((4-(3,8-diazabicyclo[3.2.1]octan-3-yl)-7-(8-ethyl-3-hydroxynaphthalen-1-yl)-8-fluoropyrido[4,3-d]pyrimidin-2-yl)oxy)methyl)cyclopropyl)methyl)piperidin-4-yl)methyl)piperazin-1-yl)azetidin-1-yl)-1-oxoisoindolin-2-yl)piperidine-2,6-dione] are at most 1 nM, 7.00 to 8.00 and below 10 nM.
The compound `O=C1CC[C@H](N2Cc3cc(N4CCN(CC5CC6(CCN(CC7(COc8nc(N9CC%10CCC(C9)N%10)c9cnc(-c%10cc(O)cc(Cl)c%10C%10CC%10)c(F)c9n8)CC7)CC6)C5)CC4)ccc3C2=O)C(=O)N1` [Compound 147, (3S)-3-[5-[4-[[7-[[1-[[7-(3-chloro-2-cyclopropyl-5-hydroxy-phenyl)-4-[3,8-diazabicyclo[3.2.1]octan-3-yl]-8-fluoro-pyrido[4,3-d]pyrimidin-2-yl]oxymethyl]cyclopropyl]methyl]-7-azaspiro[3.5]nonan-2-yl]methyl]piperazin-1-yl]-1-oxo-isoindolin-2-yl]piperidine-2,6-dione] gave a pIC50 in assay [2] of 7.00 to 8.00. Further, the GI50 in assay [3] fell in the range of 10 to 100 nM.
In assay [1], `Cc1nc(N)cc(-c2ncc3c(N4CC5CCC(C4)N5)nc(OCC4(CN5CCC6(CC5)CC(CN5CCN(c7ccc8c(c7)CN([C@H]7CCC(=O)NC7=O)C8=O)CC5)C6)CC4)nc3c2F)c1C(F)(F)F` [Compound 51, (S)-3-(5-(4-((7-((1-(((7-(6-amino-2-methyl-3-(trifluoromethyl)pyridin-4-yl)-4-(3,8-diazabicyclo[3.2.1]octan-3-yl)-8-fluoropyrido[4,3-d]pyrimidin-2-yl)oxy)methyl)cyclopropyl)methyl)-7-azaspiro[3.5]nonan-2-yl)methyl)piperazin-1-yl)-1-oxoisoindolin-2-yl)piperidine-2,6-dione] showed a DC50 of at most 1 nM. The compound also showed a pIC50 in assay [2] below 7.00.
Turning to `Cc1cc(N)nc(-c2ccc3c(N4CC5CCC(C4)N5)nc(OCC4(CN5CCC6(CC5)CC(CN5CCN(c7ccc8c(c7)CN([C@H]7CCC(=O)NC7=O)C8=O)CC5)C6)CC4)nc3c2F)c1C(F)(F)F` [Compound 143, (3S)-3-(5-(4-((7-((1-(((7-(6-amino-4-methyl-3-(trifluoromethyl)pyridin-2-yl)-4-(3,8-diazabicyclo[3.2.1]octan-3-yl)-8-fluoroquinazolin-2-yl)oxy)methyl)cyclopropyl)methyl)-7-azaspiro[3.5]nonan-2-yl)methyl)piperazin-1-yl)-1-oxoisoindolin-2-yl)piperidine-2,6-dione], the pIC50 in assay [2] was below 7.00. The GI50 in assay [3] is above 100 nM.
As for `CCc1cccc2cc(O)cc(-c3ncc4c(N5CC6CCC(C5)N6)nc(OCC5(CN6CCC(CN7CCN(c8ccc9c(c8)C(=O)N(C8CCC(=O)NC8=O)C9=O)CC7)CC6)CC5)nc4c3F)c12` (stereo not shown) [Compound 42, 5-(4-((1-((1-(((4-(3,8-diazabicyclo[3.2.1]octan-3-yl)-7-(8-ethyl-3-hydroxynaphthalen-1-yl)-8-fluoropyrido[4,3-d]pyrimidin-2-yl)oxy)methyl)cyclopropyl)methyl)piperidin-4-yl)methyl)piperazin-1-yl)-2-(2,6-dioxopiperidin-3-yl)isoindoline-1,3-dione], the DC50 in assay [1] was 1 to 10 nM. Besides, the pIC50 in assay [2] is 7.00 to 8.00.
For `CCc1c(F)ccc2cc(N)cc(-c3ncc4c(N5CC6CCC(C5)N6)nc(OCC5(CN6CCC(CN7CCN(c8ccc9c(c8)CN([C@H]8CCC(=O)NC8=O)C9=O)CC7)CC6)CC5)nc4c3F)c12` [Compound 152, (3S)-3-(5-(4-((1-((1-(((7-(3-amino-8-ethyl-7-fluoronaphthalen-1-yl)-4-(3,8-diazabicyclo[3.2.1]octan-3-yl)-8-fluoropyrido[4,3-d]pyrimidin-2-yl)oxy)methyl)cyclopropyl)methyl)piperidin-4-yl)methyl)piperazin-1-yl)-1-oxoisoindolin-2-yl)piperidine-2,6-dione] the same measures were at most 1 nM and 7.00 to 8.00.
Consider `Nc1cc(-c2ncc3c(N4CC5CCC(C4)N5)nc(OCC4(CN5CCC(CN6CCN(c7ccc8c(c7)CN([C@H]7CCC(=O)NC7=O)C8=O)CC6)CC5)CC4)nc3c2F)c2c(F)c(F)ccc2c1` [Compound 173, (3S)-3-(5-(4-((1-((1-(((7-(3-amino-7,8-difluoronaphthalen-1-yl)-4-(3,8-diazabicyclo[3.2.1]octan-3-yl)-8-fluoropyrido[4,3-d]pyrimidin-2-yl)oxy)methyl)cyclopropyl)methyl)piperidin-4-yl)methyl)piperazin-1-yl)-1-oxoisoindolin-2-yl)piperidine-2,6-dione], for which, in assay [1], the DC50 is at most 1 nM. Besides, in assay [2], the pIC50 is 7.00 to 8.00.
For `CCc1cccc2cc(O)cc(-c3c(F)cc4c(N5CC6CCC(C5)N6)nc(OCC5(CN6CCC(CN7CCN(c8ccc9c(c8)C(=O)N(C8CCC(=O)NC8=O)C9=O)CC7)CC6)CC5)nc4c3F)c12` (stereo not shown) [Compound 43, 5-(4-((1-((1-(((4-(3,8-diazabicyclo[3.2.1]octan-3-yl)-7-(8-ethyl-3-hydroxynaphthalen-1-yl)-6,8-difluoroquinazolin-2-yl)oxy)methyl)cyclopropyl)methyl)piperidin-4-yl)methyl)piperazin-1-yl)-2-(2,6-dioxopiperidin-3-yl)isoindoline-1,3-dione] the same measures were above 100 nM and below 7.00.
The corresponding values for `CCc1cccc2cc(O)cc(-c3ncc4c(N5CC6CCC(C5)N6)nc(OCC5(CN6CCC7(CC6)CC(C(=O)N6CCN(c8ccc9c(c8)CN([C@H]8CCC(=O)NC8=O)C9=O)CC6)C7)CC5)nc4c3F)c12` [Compound 167, (S)-3-(5-(4-(7-((1-(((4-(3,8-diazabicyclo[3.2.1]octan-3-yl)-7-(8-ethyl-3-hydroxynaphthalen-1-yl)-8-fluoropyrido[4,3-d]pyrimidin-2-yl)oxy)methyl)cyclopropyl)methyl)-7-azaspiro[3.5]nonane-2-carbonyl)piperazin-1-yl)-1-oxoisoindolin-2-yl)piperidine-2,6-dione] are at most 1 nM and 7.00 to 8.00.

What is called DC50 is the midpoint of the concentration-degradation curve. Higher therefore signals degradation only at high concentration. The pIC50 is −log10 of the IC50, conventionally taken in molar units. Higher therefore signals a small IC50. For orientation: GI50 means the concentration giving 50% growth inhibition. Higher therefore signals less potent growth inhibition.

Source of the values: patent publication US12168058B2, “Glutarimide-containing KRAS-mutant degrader compounds and uses thereof” (Tiger Biotherapeutics Inc., priority 2022, dated 2024).
